The target in assay [1] is T1, Tyrosine-protein phosphatase non-receptor type 2 (Homo sapiens, UniProt P17706).
T1 sequence (P17706 whole entry): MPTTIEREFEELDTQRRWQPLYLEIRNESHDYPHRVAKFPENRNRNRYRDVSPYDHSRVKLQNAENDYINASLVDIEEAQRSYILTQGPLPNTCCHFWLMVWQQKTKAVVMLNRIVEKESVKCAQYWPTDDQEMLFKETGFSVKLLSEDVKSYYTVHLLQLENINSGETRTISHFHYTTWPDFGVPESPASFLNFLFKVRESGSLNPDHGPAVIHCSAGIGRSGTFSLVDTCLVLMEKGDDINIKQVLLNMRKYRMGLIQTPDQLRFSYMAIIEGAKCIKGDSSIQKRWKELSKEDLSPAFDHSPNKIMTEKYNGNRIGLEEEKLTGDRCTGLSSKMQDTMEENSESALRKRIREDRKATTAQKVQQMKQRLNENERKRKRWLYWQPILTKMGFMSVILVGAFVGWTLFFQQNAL
Briefly: Inhibition of TCPTP.

Assay [2] concerns the target Receptor-type tyrosine-protein phosphatase mu (Homo sapiens, UniProt P28827). Briefly: Inhibition of HPTP mu.
Assay [3] has as its target T2, Receptor-type tyrosine-protein phosphatase C (Homo sapiens, UniProt P08575).
T2 sequence (P08575 whole entry): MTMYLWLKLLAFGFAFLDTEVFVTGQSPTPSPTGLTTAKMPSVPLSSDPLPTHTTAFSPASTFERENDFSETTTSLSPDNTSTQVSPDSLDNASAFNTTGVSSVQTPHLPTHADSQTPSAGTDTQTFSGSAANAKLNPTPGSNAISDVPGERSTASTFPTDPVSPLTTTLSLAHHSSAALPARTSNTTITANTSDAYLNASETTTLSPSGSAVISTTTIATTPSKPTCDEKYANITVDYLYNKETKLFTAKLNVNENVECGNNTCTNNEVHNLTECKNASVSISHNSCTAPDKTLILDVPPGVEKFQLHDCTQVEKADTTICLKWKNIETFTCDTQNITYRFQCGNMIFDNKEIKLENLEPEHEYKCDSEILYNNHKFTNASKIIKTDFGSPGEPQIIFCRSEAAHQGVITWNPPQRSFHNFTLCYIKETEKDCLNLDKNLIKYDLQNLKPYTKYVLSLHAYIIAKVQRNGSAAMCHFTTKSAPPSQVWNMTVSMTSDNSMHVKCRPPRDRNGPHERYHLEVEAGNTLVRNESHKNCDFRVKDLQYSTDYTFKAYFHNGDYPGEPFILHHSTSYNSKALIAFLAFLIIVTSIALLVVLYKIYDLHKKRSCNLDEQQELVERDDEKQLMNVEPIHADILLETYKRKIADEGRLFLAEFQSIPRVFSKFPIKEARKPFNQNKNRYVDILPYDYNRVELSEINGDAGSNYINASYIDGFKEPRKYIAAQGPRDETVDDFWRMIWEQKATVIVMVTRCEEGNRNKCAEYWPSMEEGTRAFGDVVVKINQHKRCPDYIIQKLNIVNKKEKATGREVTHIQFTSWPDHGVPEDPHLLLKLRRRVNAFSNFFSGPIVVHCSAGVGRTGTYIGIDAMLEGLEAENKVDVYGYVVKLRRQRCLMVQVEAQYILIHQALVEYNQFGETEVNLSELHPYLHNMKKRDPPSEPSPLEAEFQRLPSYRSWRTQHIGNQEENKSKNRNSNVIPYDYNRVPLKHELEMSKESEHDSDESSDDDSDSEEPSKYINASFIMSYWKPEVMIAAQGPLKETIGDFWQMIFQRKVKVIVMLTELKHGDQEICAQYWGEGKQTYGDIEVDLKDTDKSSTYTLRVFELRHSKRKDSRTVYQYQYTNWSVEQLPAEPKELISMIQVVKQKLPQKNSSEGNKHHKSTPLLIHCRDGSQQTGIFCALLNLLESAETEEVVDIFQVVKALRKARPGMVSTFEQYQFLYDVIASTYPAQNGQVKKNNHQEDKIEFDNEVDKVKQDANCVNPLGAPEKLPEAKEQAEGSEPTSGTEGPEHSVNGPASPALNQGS
Briefly: Inhibition of CD45.

The target of assay [4] is Receptor-type tyrosine-protein phosphatase gamma (Homo sapiens, UniProt P23470). Briefly: Inhibition of PTP gamma.
Chain of Receptor-type tyrosine-protein phosphatase gamma (P23470 whole entry): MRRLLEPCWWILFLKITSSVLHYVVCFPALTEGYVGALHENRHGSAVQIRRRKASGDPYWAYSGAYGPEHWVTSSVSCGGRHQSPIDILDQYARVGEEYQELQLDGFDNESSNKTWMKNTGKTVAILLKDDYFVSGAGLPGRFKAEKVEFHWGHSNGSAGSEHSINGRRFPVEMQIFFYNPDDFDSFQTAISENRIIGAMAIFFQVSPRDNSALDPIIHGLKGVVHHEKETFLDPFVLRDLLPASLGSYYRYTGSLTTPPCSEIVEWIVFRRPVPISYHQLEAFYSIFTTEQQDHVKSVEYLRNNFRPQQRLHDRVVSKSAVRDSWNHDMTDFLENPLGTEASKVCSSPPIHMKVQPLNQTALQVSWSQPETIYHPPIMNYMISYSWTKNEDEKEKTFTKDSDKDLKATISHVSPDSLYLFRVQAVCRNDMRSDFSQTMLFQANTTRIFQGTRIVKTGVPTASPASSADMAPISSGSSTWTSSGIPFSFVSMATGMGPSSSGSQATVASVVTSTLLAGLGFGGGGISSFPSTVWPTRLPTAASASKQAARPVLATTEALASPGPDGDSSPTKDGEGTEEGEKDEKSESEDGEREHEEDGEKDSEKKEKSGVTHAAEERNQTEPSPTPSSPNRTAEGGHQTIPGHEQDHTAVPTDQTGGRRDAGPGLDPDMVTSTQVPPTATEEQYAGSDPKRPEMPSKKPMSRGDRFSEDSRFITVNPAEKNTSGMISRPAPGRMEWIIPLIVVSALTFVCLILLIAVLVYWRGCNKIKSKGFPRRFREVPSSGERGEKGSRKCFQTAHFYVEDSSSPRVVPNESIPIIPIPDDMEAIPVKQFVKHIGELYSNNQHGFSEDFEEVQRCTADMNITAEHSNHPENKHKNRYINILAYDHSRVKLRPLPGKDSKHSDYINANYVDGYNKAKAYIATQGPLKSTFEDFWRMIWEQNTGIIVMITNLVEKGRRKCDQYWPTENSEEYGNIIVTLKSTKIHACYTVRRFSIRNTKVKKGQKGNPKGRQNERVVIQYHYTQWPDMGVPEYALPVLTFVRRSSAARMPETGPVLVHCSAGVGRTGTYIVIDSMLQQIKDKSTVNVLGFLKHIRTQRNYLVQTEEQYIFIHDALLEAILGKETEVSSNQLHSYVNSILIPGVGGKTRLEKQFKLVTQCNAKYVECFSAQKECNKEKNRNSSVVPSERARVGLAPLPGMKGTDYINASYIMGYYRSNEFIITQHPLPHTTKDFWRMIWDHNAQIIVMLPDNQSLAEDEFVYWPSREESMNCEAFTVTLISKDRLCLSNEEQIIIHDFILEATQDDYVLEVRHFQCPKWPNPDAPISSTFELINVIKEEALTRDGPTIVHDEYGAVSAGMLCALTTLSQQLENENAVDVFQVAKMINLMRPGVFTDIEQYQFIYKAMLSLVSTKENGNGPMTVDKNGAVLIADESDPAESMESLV
A short description of assay [5]: Inhibition of STP1.
Assay [6] addresses Dual specificity protein phosphatase 3 (Homo sapiens, UniProt P51452). As to the kind of experiment: Inhibition of VHR.

The structures appear in SMILES notation.

Chain of Dual specificity protein phosphatase 3 (P51452 whole entry): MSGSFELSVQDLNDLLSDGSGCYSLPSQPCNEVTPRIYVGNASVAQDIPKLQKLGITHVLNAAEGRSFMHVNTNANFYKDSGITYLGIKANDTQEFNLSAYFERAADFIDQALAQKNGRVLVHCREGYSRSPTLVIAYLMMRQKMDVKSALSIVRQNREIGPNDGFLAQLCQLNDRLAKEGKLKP
Chain of Receptor-type tyrosine-protein phosphatase mu (P28827 whole entry): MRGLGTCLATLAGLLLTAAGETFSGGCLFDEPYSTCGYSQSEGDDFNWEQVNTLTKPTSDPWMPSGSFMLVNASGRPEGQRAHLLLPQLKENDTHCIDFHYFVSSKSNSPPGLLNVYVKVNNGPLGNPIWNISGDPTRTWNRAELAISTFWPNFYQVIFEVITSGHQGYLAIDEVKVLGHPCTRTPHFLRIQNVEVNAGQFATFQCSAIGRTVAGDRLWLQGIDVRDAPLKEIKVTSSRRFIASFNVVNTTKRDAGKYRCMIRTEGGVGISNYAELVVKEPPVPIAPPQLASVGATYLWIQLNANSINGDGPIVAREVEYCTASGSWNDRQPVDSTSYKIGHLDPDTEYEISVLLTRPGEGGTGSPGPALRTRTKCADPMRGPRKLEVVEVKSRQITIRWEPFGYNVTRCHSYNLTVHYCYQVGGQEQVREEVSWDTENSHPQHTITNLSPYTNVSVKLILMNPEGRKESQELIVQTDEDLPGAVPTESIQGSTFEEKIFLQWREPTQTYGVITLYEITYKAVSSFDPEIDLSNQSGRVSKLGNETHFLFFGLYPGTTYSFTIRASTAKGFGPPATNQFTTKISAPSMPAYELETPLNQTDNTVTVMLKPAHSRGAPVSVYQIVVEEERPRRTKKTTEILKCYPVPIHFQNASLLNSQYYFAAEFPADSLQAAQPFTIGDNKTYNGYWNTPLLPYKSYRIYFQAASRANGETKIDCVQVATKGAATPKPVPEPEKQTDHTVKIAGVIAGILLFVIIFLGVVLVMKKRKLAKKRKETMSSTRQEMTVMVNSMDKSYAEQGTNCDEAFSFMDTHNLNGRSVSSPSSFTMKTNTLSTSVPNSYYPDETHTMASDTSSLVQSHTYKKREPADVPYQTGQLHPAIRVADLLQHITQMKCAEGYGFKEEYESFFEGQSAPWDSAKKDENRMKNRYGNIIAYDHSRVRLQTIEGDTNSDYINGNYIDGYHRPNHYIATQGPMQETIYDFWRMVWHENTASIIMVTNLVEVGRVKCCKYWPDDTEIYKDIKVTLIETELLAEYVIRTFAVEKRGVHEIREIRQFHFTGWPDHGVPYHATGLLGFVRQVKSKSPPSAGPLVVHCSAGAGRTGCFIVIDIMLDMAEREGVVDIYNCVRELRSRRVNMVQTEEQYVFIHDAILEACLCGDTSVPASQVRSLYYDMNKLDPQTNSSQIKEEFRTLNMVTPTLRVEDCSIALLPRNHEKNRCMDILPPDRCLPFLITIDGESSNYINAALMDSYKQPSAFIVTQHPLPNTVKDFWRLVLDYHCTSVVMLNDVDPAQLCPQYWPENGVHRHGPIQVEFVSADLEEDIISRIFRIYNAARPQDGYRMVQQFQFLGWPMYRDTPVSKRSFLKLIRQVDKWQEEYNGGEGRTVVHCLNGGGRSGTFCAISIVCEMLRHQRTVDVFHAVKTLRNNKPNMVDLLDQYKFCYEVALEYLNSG

As for `CNC(=O)[C@@H]1Cc2ccc(NS(=O)(=O)O)cc2CN1C(=O)CCc1cccc(NS(=O)(=O)O)c1`, the IC50 (usually the midpoint of a concentration-inhibition curve) in assay [1] was 9.4 µM; in assay [2], above 500 µM; in assay [3], above 500 µM; in assay [4], above 500 µM; in assay [5] it was 8.1 µM; in assay [6], 4 µM.

For the origin of these results see ChEMBL document CHEMBL1139672, “1,2,3,4-Tetrahydroisoquinolinyl sulfamic acids as phosphatase PTP1B inhibitors” (Bioorg Med Chem Lett, 2006).
